Legend:
[1] = test system: Mycobacterium tuberculosis; assay: Antimycobacterial activity against multidrug resistance Mycobacterium tuberculosis 16883 clinical isolate assessed as inhibition of bacterial growth incubated for 7 days by MABA assay; format: functional; details: Mycobacterium tuberculosis, 16883, 168 h; time 7 day
[2] = test system: Mycobacterium tuberculosis; assay: Antimycobacterial activity against multidrug resistance Mycobacterium tuberculosis 16995 clinical isolate assessed as inhibition of bacterial growth incubated for 7 days by MABA assay; format: functional; details: Mycobacterium tuberculosis, 16995, 168 h; time 7 day

SMILES	MIC [1] [µg/mL]	MIC [2] [µg/mL]
CC(c1cc(F)c(F)c(F)c1)N1CC2(CCN(c3nc(=O)c4cc(C(F)(F)F)cc([N+](=O)[O-])c4s3)CC2)C1 (centres undefined)	< 0.016	< 0.016
CC(c1cc(F)cc(F)c1)N1CC2(CCN(c3nc(=O)c4cc(C(F)(F)F)cc([N+](=O)[O-])c4s3)CC2)C1 (centres undefined)	< 0.016	< 0.016
CC(c1ccc(OC(F)(F)F)cc1)N1CCC2(CC1)CN(c1nc(=O)c3cc(C(F)(F)F)cc([N+](=O)[O-])c3s1)C2 (centres undefined)	< 0.016	< 0.016
CC(c1ccc(Cl)cc1)N1CC2(CCN(c3nc(=O)c4cc(C(F)(F)F)cc([N+](=O)[O-])c4s3)CC2)C1 (centres undefined)	< 0.016	< 0.016
CC(c1ccc(F)cc1F)N1CC2(CCN(c3nc(=O)c4cc(C(F)(F)F)cc([N+](=O)[O-])c4s3)CC2)C1 (centres undefined)	< 0.016	< 0.016
CC(c1ccc(F)c(Cl)c1)N1CC2(CCN(c3nc(=O)c4cc(C(F)(F)F)cc([N+](=O)[O-])c4s3)CC2)C1 (centres undefined)	< 0.016	< 0.016
O=c1nc(N2CCC3(CC2)CN(Cc2cccc(F)c2)C3)sc2c([N+](=O)[O-])cc(C(F)(F)F)cc12	< 0.016	< 0.016
CC(c1ccc(Br)cc1)N1CC2(CCN(c3nc(=O)c4cc(C(F)(F)F)cc([N+](=O)[O-])c4s3)CC2)C1 (centres undefined)	< 0.016	< 0.016
O=c1nc(N2CCC3(CC2)CN(Cc2ccc(OC(F)(F)F)cc2)C3)sc2c([N+](=O)[O-])cc(C(F)(F)F)cc12	< 0.016	< 0.016
O=c1nc(N2CCC3(CC2)CN(Cc2cc(F)cc(F)c2)C3)sc2c([N+](=O)[O-])cc(C(F)(F)F)cc12	< 0.016	< 0.016
CC(c1ccc(OC(F)(F)F)cc1)N1CC2(CCN(c3nc(=O)c4cc(C(F)(F)F)cc([N+](=O)[O-])c4s3)CC2)C1 (centres undefined)	< 0.016	< 0.016
O=c1nc(N2CCC3(CC2)CN(Cc2ccc(F)cc2)C3)sc2c([N+](=O)[O-])cc(C(F)(F)F)cc12	< 0.016	< 0.016
CC(c1ccc(F)cc1)N1CC2(CCN(c3nc(=O)c4cc(C(F)(F)F)cc([N+](=O)[O-])c4s3)CC2)C1 (centres undefined)	< 0.016	< 0.016
CC(c1ccc(Cl)c(F)c1)N1CC2(CCN(c3nc(=O)c4cc(C(F)(F)F)cc([N+](=O)[O-])c4s3)CC2)C1 (centres undefined)	< 0.016	< 0.016
O=c1nc(N2CCC3(CC2)CN(Cc2ccc(C(F)(F)F)cc2)C3)sc2c([N+](=O)[O-])cc(C(F)(F)F)cc12	< 0.016	< 0.016
CC(c1ccc(C(F)(F)F)cc1)N1CC2(CCN(c3nc(=O)c4cc(C(F)(F)F)cc([N+](=O)[O-])c4s3)CC2)C1 (centres undefined)	< 0.016	< 0.016
CO[C@H]1/C=C/O[C@@]2(C)Oc3c(C)c(O)c4c(O)c(c(/C=N/N5CCN(C)CC5)c(O)c4c3C2=O)NC(=O)/C(C)=C\C=C\[C@H](C)[C@H](O)[C@@H](C)[C@@H](O)[C@@H](C)[C@H](OC(C)=O)[C@@H]1C [RIFAMPIN]	> 10	> 10
O=c1nc(N2CCC3(CC2)CN(Cc2ccc(Br)cc2)C3)sc2c([N+](=O)[O-])cc(C(F)(F)F)cc12	< 0.016	< 0.016
CC(c1ccc(F)c(F)c1)N1CC2(CCN(c3nc(=O)c4cc(C(F)(F)F)cc([N+](=O)[O-])c4s3)CC2)C1 (centres undefined)	< 0.016	< 0.016
CC(c1cccc(F)c1)N1CC2(CCN(c3nc(=O)c4cc(C(F)(F)F)cc([N+](=O)[O-])c4s3)CC2)C1 (centres undefined)	< 0.016	< 0.016
NNC(=O)c1ccncc1 [ISONIAZID]	> 10	> 10
O=c1nc(N2CCN(CC3CCCCC3)CC2)sc2c([N+](=O)[O-])cc(C(F)(F)F)cc12 [MACOZINONE]	< 0.016	< 0.016

Source: ChEMBL document CHEMBL4680263, “Identification of benzothiazinones containing 2-benzyl-2,7-diazaspiro[3.5]nonane moieties as new antitubercular agents” (Eur J Med Chem, 2020)
